The term IC50 denotes the concentration at which inhibition is half-maximal.

This experiment concerns the target T1, MAGL (Homo sapiens, UniProt Q99685).
T1 sequence (Q99685 1-303): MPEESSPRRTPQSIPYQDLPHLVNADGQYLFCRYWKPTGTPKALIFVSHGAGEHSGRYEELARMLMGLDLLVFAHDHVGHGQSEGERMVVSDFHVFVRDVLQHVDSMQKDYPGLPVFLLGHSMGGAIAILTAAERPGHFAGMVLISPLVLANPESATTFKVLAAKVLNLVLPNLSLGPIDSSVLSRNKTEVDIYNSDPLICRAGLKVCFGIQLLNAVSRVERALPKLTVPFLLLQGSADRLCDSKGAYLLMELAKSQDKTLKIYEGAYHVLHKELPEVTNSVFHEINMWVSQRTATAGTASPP
Briefly: 2-AG assay (MAGL inhibitory activity, hydrolysis of 2-arachidonoylglycerol followed by mass spectrometry). It counts as biochemical. To be noted: 15 min preincubation at RT, 8 μM 2-arachidonoylglycerol, 30 min at RT, arachidonic acid by MS. How it is done:
Compounds were profiled for MAGL inhibitory activity by determining the enzymatic activity by following the hydrolysis of the natural substrate 2-arachidonoylglycerol (2-AG) resulting in arachidonic acid, which can be followed by mass spectrometry. This assay is hereinafter abbreviated “2-AG assay”.
The 2-AG assay was carried out in 384 well assay plates (PP, Greiner Cat #784201) in a total volume of 20 μL. Compound dilutions were made in 100% DMSO (VWR Chemicals 23500.297) in a polypropylene plate in 3-fold dilution steps to give a final concentration range in the assay from 12.5 μM to […]. 0.25 μL compound dilutions (100% DMSO) were added to 9 μL MAGL in assay buffer (50 mM TRIS (GIBCO, 15567-027), 1 mM EDTA (Fluka, 03690-100 mL), 0.01% (v/v) Tween. After shaking, the plate was incubated for 15 min at RT. To start the reaction, 10 μL 2-arachidonoylglycerol in assay buffer was added. The final concentrations in the assay was […] and 8 μM 2-arachidonoylglyerol. After shaking and 30 min incubation at RT, the reaction was quenched by the addition of 40 μL of ACN containing 4 μM of d8-arachidonic acid. The amount of arachidonic acid was traced by an online SPE system (Agilent Rapidfire) coupled to a triple quadrupole mass spectrometer (Agilent 6460). A C18 SPE cartridge (G9205A) was used in an ACN/water liquid setup. The mass spectrometer was operated in negative electrospray mode following the mass transitions 303.1→259.1 for arachidonic acid and 311.1→267.0 for d8-arachidonic acid. The activity of the compounds was calculated based on the ratio of intensities [arachidonic acid/d8-arachidonic acid].
Regarding `O=C1CO[C@H]2CCN(C(=O)N3CC(c4ccc(C5CCOC5)cc4)C3)C[C@H]2N1` (single isomer, unassigned) [Example 1, (4aR,8aS)-6-[3-[4-[(3R or S)-Tetrahydrofuran-3-yl]phenyl]azetidine-1-carbonyl]-4,4a,5,7,8,8a-hexahydropyrido[4,3-b][1,4]oxazin-3-one], 33.1 nM corresponded to half-maximal inhibition (IC50).

As to `O=C1CO[C@H]2CCN(C(=O)N3CC(c4ccc(C5CCOC5)cc4)C3)C[C@H]2N1` (single isomer, unassigned) [Example 2, (4aR,8aS)-6-[3-[4-[(3S or R)-Tetrahydrofuran-3-yl]phenyl]azetidine-1-carbonyl]-4,4a,5,7,8,8a-hexahydropyrido[4,3-b][1,4]oxazin-3-one], the half-maximal inhibitory concentration (IC50) came out at 42 nM.

In the case of `CC1C(OCc2c(F)cccc2C(F)(F)F)CN1C(=O)N1CC[C@@H]2OCC(=O)N[C@@H]2C1` (single isomer, unassigned) [Example 27], the half-inhibitory concentration (IC50) stood at 18.8 nM.

On to `CC1C(OCc2c(F)cccc2C(F)(F)F)CN1C(=O)N1CC[C@@H]2OCC(=O)N[C@@H]2C1` (single isomer, unassigned) [Example 28], for which the IC50 was 342 nM.

Molecule `CC1C(OCc2c(F)cccc2C(F)(F)F)CN1C(=O)N1CC[C@@H]2OCC(=O)N[C@@H]2C1` (single isomer, unassigned) [Example 29] gave a 50% inhibitory concentration (IC50) of 406 nM.

In the case of `O=C1CO[C@H]2CCN(C(=O)N3CC(c4ccc(OC5CC(F)(F)C5)cc4)C3)C[C@H]2N1` [Example 3, (4aR,8aS)-6-[3-[4-(3,3-Difluorocyclobutoxy)phenyl]azetidine-1-carbonyl]-4,4a,5,7,8,8a-hexahydropyrido[4,3-b][1,4]oxazin-3-one], the half-inhibitory concentration (IC50) came to 4.1 nM.

On to `CC(C)Oc1ccc(C2CN(C(=O)N3CC[C@@H]4OCC(=O)N[C@@H]4C3)C2)cc1` [Example 4, (4aR,8aS)-6-[3-(4-Isopropoxyphenyl)azetidine-1-carbonyl]-4,4a,5,7,8,8a-hexahydropyrido[4,3-b][1,4]oxazin-3-one], for which the IC50 turned out to be 7.1 nM.

`O=C1CO[C@H]2CCN(C(=O)N3CC(c4ccc(C5CCOCC5)cc4)C3)C[C@H]2N1` [Example 5, (4aR,8aS)-6-[3-(4-Tetrahydropyran-4-ylphenyl)azetidine-1-carbonyl]-4,4a,5,7,8,8a-hexahydropyrido[4,3-b][1,4]oxazin-3-one]: the IC50 came out at 6 nM.

In the case of `O=C1CO[C@H]2CCN(C(=O)N3CC(c4ccc(C5CC(F)(F)C5)cc4)C3)C[C@H]2N1` [Example 6, (4aR,8aS)-6-[3-[4-(3,3-Difluorocyclobutyl)phenyl]azetidine-1-carbonyl]-4,4a,5,7,8,8a-hexahydropyrido[4,3-b][1,4]oxazin-3-one], the IC50 worked out at 2.9 nM.

Consider `O=C1CO[C@H]2CCN(C(=O)N3CC(c4nsc(-c5ccc(Cl)cc5Cl)n4)C3)C[C@H]2N1` [Example 7, (4aR,8aS)-6-[3-[5-(2,4-Dichlorophenyl)-1,2,4-thiadiazol-3-yl]azetidine-1-carbonyl]-4,4a,5,7,8,8a-hexahydropyrido[4,3-b][1,4]oxazin-3-one], for which half-maximal inhibition (IC50) required 9.1 nM.

Molecule `O=C1CO[C@H]2CCN(C(=O)N3CC(c4cn(-c5ccc(Cl)cc5Cl)cn4)C3)C[C@H]2N1` [Example 8, (4aR,8aS)-6-[3-[1-(2,4-Dichlorophenyl)imidazol-4-yl]azetidine-1-carbonyl]-4,4a,5,7,8,8a-hexahydropyrido[4,3-b][1,4]oxazin-3-one] had an IC50 of 38.8 nM.

`O=C1CO[C@H]2CCN(C(=O)N3CC(c4nc(-c5ccc(Cl)cc5C(F)(F)F)no4)C3)C[C@H]2N1` [Example 9, (4aR,8aS)-6-[3-[3-[4-Chloro-2-(trifluoromethyl)phenyl]-1,2,4-oxadiazol-5-yl]azetidine-1-carbonyl]-4,4a,5,7,8,8a-hexahydropyrido[4,3-b][1,4]oxazin-3-one] yielded an IC50 of 23.5 nM.

Values taken from patent US20210094973A1, “HETEROCYCLIC COMPOUNDS” (Hoffmann-La Roche Inc., priority 2019, published 2021).
